For data set [1] the following is noted: 101 kPa, Liquid.
Data set [2] in a line: xn = mol fraction of the nth substance listed. The settings on record: 101 kPa, Liquid, x1 = 1.

Among the data in the NIST ThermoML archive (doi:10.1016/j.jct.2005.01.017) are mass density values, retold here.

Where “and” joins values, the source holds several entries; their conditions need not be identical. Equal entries are not always repeated. Numbers after ± are expanded uncertainties.

Broadly, the mass density is mass per unit of volume. As for `Cc1ccccc1C` [1,2-dimethylbenzene], the mass density stood at 878.6 ± 40 kg/m3 in data set [1] (293.15 K); 872.25 ± 40 kg/m3 in data set [1] (303.15 K); 859.67 ± 40 kg/m3 in data set [1] (313.15 K); 840.84 ± 40 kg/m3 in data set [1] (323.15 K); 815.74 ± 40 kg/m3 in data set [1] (333.15 K); 784.38 ± 40 kg/m3 in data set [1] (343.15 K).
Consider `Cc1ccccc1C` [1,2-dimethylbenzene] + CC1COC(=O)O1, for which the mass density is listed as 878.6 ± 40 kg/m3 in data set [2] (293.15 K); 872.25 ± 40 kg/m3 in data set [2] (303.15 K); 859.67 ± 40 kg/m3 in data set [2] (313.15 K); 840.84 ± 40 kg/m3 in data set [2] (323.15 K); 815.74 ± 40 kg/m3 in data set [2] (333.15 K); 784.38 ± 40 kg/m3 in data set [2] (343.15 K).
Take `Cc1cccc(C)c1` [1,3-dimethylbenzene]: the mass density came to 864.2 ± 1.9 kg/m3 in data set [1] (293.15 K); 855.76 ± 2 kg/m3 in data set [1] (303.15 K); 847.11 ± 2.1 kg/m3 in data set [1] (313.15 K); 838.27 ± 2.1 kg/m3 in data set [1] (323.15 K); 829.22 ± 2.2 kg/m3 in data set [1] (333.15 K); 819.97 ± 2.3 kg/m3 in data set [1] (343.15 K). The mass density in data set [1] (353.15 K) is 810.51 ± 2.3 kg/m3.
As for `Cc1cccc(C)c1` [1,3-dimethylbenzene] + CC1COC(=O)O1, the mass density in data set [2] (293.15 K) was found to be 864.2 ± 40 kg/m3; in data set [2] (303.15 K) it was 855.76 ± 40 kg/m3; in data set [2] (313.15 K), 847.11 ± 40 kg/m3; in data set [2] (323.15 K) it was 838.27 ± 40 kg/m3; in data set [2] (333.15 K) it was 829.22 ± 40 kg/m3; in data set [2] (343.15 K), 819.97 ± 40 kg/m3. The mass density in data set [2] (353.15 K) turned out to be 810.51 ± 40 kg/m3.
As for `Cc1ccc(C)cc1` [1,4-dimethylbenzene], the mass density in data set [1] (293.15 K) worked out at 861 ± 1.8 kg/m3; in data set [1] (303.15 K), 852.28 ± 1.9 kg/m3; in data set [1] (313.15 K) it was 843.58 ± 1.9 kg/m3; in data set [1] (323.15 K) it was 834.92 ± 2 kg/m3; in data set [1] (333.15 K), 826.27 ± 2.1 kg/m3; in data set [1] (343.15 K) it was 817.66 ± 2.2 kg/m3. Besides, the mass density in data set [1] (353.15 K) worked out at 809.07 ± 2.2 kg/m3.
For `Cc1ccc(C)cc1` [1,4-dimethylbenzene] + CC1COC(=O)O1, the mass density in data set [2] (293.15 K) is reported as 861 ± 40 kg/m3; in data set [2] (303.15 K), 852.28 ± 40 kg/m3; in data set [2] (313.15 K), 843.58 ± 40 kg/m3; in data set [2] (323.15 K), 834.92 ± 40 kg/m3; in data set [2] (333.15 K), 826.27 ± 40 kg/m3; in data set [2] (343.15 K) it was 817.66 ± 40 kg/m3. The mass density in data set [2] (353.15 K) was 809.07 ± 40 kg/m3.
On to `CC1COC(=O)O1` (configuration not stated) [4-methyl-1,3-dioxolan-2-one], for which the mass density was 1200.25 ± 40 kg/m3 in data set [1] (293.15 K); 1180.55 ± 40 kg/m3 and 1180.56 ± 40 kg/m3 in data set [1] (303.15 K); 1161.28 ± 40 kg/m3 in data set [1] (313.15 K); 1142.43 ± 40 kg/m3 in data set [1] (323.15 K); 1123.99 ± 40 kg/m3 in data set [1] (333.15 K); 1105.98 ± 40 kg/m3 in data set [1] (343.15 K). In addition, in data set [1] (353.15 K), the mass density amounted to 1088.38 ± 40 kg/m3.
